The values that follow come from PubChem BioAssay (NCI).

Each structure is given as a SMILES string.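 Five compound concentrations were applied to cells in 96-well plates for 48 hours; endpoints were derived by simple linear interpolation of the resulting dose-response curve. The concentration for 50% growth inhibition is given as GI50. Definition used: TGI = concentration required for complete inhibition of growth.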

The first assay deals with OVCAR-5 ovarian. Description: NCI tumour cell line growth inhibition, 48 h.
In the case of `NCCOCCOCCNc1nc(Cc2ccccc2)nc(NCCCN2CCCC2=O)n1`, the GI50 was over 100 µM and the TGI is over 100 µM.

Regarding `COc1ccc(-c2c3c(N)nc(-c4ccncc4)nc3nc3c2c(C)nn3-c2ccccc2)cc1`, the GI50 was 4.03 µM and the TGI is over 100 µM.

Take `COc1cccc(-n2ncc3c(N/N=C/c4ccc(C(=O)NCCN(C)C)cc4)ncnc32)c1`: the GI50 was 4.53 µM and the TGI was determined as 8.61 µM.

Regarding `COc1ccc(-c2nc3sc4c(c3c(=O)[nH]2)CCCCCC4)cc1`, the GI50 is over 33.2 µM and the TGI is over 33.2 µM.

As for `CC1(C)CC(=O)c2c(C(F)(F)F)nn(-c3ccc(C(N)=O)c(NC4CCC(OC(=O)CN)CC4)c3)c2C1` (stereo not given), the GI50 was 3.7 µM and the TGI was over 100 µM.

In turn, `O=C1CC(c2ccc(O)cc2)C2(O1)C(=O)OC(C(O)CO)C2O` (stereo not given) had a TGI of over 100 µM.

For the compound `Cc1ccccc1[P+](Cc1ccccc1)(c1ccccc1)c1ccccc1`, the GI50 was 2.46 µM and the TGI is over 100 µM.

In the case of `O=C(NCCCCCCNC(=O)n1cc(F)c(=O)[nH]c1=O)NCCCOCCOCCOCCOCCOCCOCCOCCOCCOCCOCCOCCOCCOCCOCCOCCOCCOCCOCCOCCOCCOCCCNC(=O)C(O)C(O)C(O)C(O)CO` (stereo not given), the TGI is over 100 µM.

A further assay has as its system SF-539 CNS. Description: NCI tumour cell line growth inhibition, 48 h.
In the case of `CN(C)C(=O)OC(Cn1cncn1)c1ccc(Cl)cc1Cl` (stereo not given), the TGI is over 100 µM.

In the case of `CN(C)CCNc1c2c(c(NCCN(C)C)c3[nH]ccc13)C(=O)c1ccccc1C2=O`, the GI50 is 1.01 µM and the TGI turned out to be 3.8 µM.

Compound `CCOC(=O)COc1ccccc1/C=C1\CCC(CN(C)C)C1=O` (stereo not given) registered a TGI of 26.6 µM.

In the case of `Cc1c(C(=O)C/C(=N\O)C(=O)Nc2cc(Cl)c(Cl)cc2Cl)[n+](=O)c2ccccc2n1[O-]`, the TGI is 32.7 µM.

In turn, `CC1OC(O[C@@H]2OC=C(C=O)[C@@]3(O)CC[C@H](C)[C@@H]23)C(O)C(O)C1O` (stereo not given in full) showed a TGI of over 100 µM.

As for `CCOC(=O)c1cc(NS(=O)(=O)c2ccccc2)cc(C(=O)OCC)c1`, the GI50 is over 100 µM and the TGI was over 100 µM.

For the compound `Cn1cccc1-c1cc(-c2cccs2)nc(N)c1C#N`, the GI50 was over 100 µM and the TGI was over 100 µM.

`O=C(N/C(=C\c1ccc2c(c1)OCO2)c1nc2ccccc2[nH]1)c1ccccc1` showed a TGI of 82.7 µM.

Regarding `C=CCOc1cccc(/C=C2\SC(=Nc3ccc(O)cc3)NC2=O)c1`, the GI50 is 0.296 µM and the TGI was determined as 1.14 µM.

Take `Cc1[nH]ccc2c1[nH]c1cc(=O)ccc12`: the TGI is over 100 µM.

Consider `NCCOCCOCCNc1nc(Cc2ccccc2)nc(NCCCN2CCCC2=O)n1`, for which the GI50 is over 100 µM and the TGI was over 100 µM.

As for `COc1ccc(-c2c3c(N)nc(-c4ccncc4)nc3nc3c2c(C)nn3-c2ccccc2)cc1`, the GI50 was 1.93 µM and the TGI was 4.97 µM.

Take `COc1cccc(-n2ncc3c(N/N=C/c4ccc(C(=O)NCCN(C)C)cc4)ncnc32)c1`: the GI50 is 3.78 µM and the TGI stood at 7.79 µM.

In the case of `COc1ccc(-c2nc3sc4c(c3c(=O)[nH]2)CCCCCC4)cc1`, the GI50 was 2.56 µM and the TGI is over 33.2 µM.

As for `CC1(C)CC(=O)c2c(C(F)(F)F)nn(-c3ccc(C(N)=O)c(NC4CCC(OC(=O)CN)CC4)c3)c2C1` (stereo not given), the GI50 was 0.364 µM and the TGI is 20.8 µM.

Regarding `O=C1CC(c2ccc(O)cc2)C2(O1)C(=O)OC(C(O)CO)C2O` (stereo not given), the TGI is over 100 µM.

Regarding `Cc1ccccc1[P+](Cc1ccccc1)(c1ccccc1)c1ccccc1`, the GI50 is 2.34 µM and the TGI turned out to be 24.7 µM.

For the compound `O=C(NCCCCCCNC(=O)n1cc(F)c(=O)[nH]c1=O)NCCCOCCOCCOCCOCCOCCOCCOCCOCCOCCOCCOCCOCCOCCOCCOCCOCCOCCOCCOCCOCCOCCCNC(=O)C(O)C(O)C(O)C(O)CO` (stereo not given), the TGI is 43.7 µM.

The next assay has as its system NCI-H226 lung. In words: NCI tumour cell line growth inhibition, 48 h.
Turning to `CN(C)C(=O)OC(Cn1cncn1)c1ccc(Cl)cc1Cl` (stereo not given), the TGI is over 100 µM.

For `CN(C)CCNc1c2c(c(NCCN(C)C)c3[nH]ccc13)C(=O)c1ccccc1C2=O`, the GI50 was 5.03 µM and the TGI was 15.8 µM.

Take `CCOC(=O)COc1ccccc1/C=C1\CCC(CN(C)C)C1=O` (stereo not given): the TGI was 32.8 µM.

As for `Cc1c(C(=O)C/C(=N\O)C(=O)Nc2cc(Cl)c(Cl)cc2Cl)[n+](=O)c2ccccc2n1[O-]`, the TGI turned out to be 37.5 µM.

Compound `CC1OC(O[C@@H]2OC=C(C=O)[C@@]3(O)CC[C@H](C)[C@@H]23)C(O)C(O)C1O` (stereo not given in full) showed a TGI of over 100 µM.

`CCOC(=O)c1cc(NS(=O)(=O)c2ccccc2)cc(C(=O)OCC)c1`: the GI50 is over 100 µM and the TGI is over 100 µM.

As for `Cn1cccc1-c1cc(-c2cccs2)nc(N)c1C#N`, the GI50 is over 100 µM and the TGI is over 100 µM.

As to `O=C(N/C(=C\c1ccc2c(c1)OCO2)c1nc2ccccc2[nH]1)c1ccccc1`, the TGI is 77.1 µM.

`C=CCOc1cccc(/C=C2\SC(=Nc3ccc(O)cc3)NC2=O)c1`: the GI50 is 1.21 µM and the TGI worked out at 22.6 µM.

For the compound `Cc1[nH]ccc2c1[nH]c1cc(=O)ccc12`, the TGI is over 100 µM.

Take `NCCOCCOCCNc1nc(Cc2ccccc2)nc(NCCCN2CCCC2=O)n1`: the GI50 is over 100 µM and the TGI is over 100 µM.

`COc1ccc(-c2c3c(N)nc(-c4ccncc4)nc3nc3c2c(C)nn3-c2ccccc2)cc1`: the GI50 was over 100 µM and the TGI was over 100 µM.

In the case of `COc1cccc(-n2ncc3c(N/N=C/c4ccc(C(=O)NCCN(C)C)cc4)ncnc32)c1`, the GI50 was 9.36 µM and the TGI was over 22.2 µM.

Take `COc1ccc(-c2nc3sc4c(c3c(=O)[nH]2)CCCCCC4)cc1`: the GI50 is 8.17 µM and the TGI is over 33.2 µM.

For the compound `CC1(C)CC(=O)c2c(C(F)(F)F)nn(-c3ccc(C(N)=O)c(NC4CCC(OC(=O)CN)CC4)c3)c2C1` (stereo not given), the GI50 is 0.103 µM and the TGI is over 56.4 µM.

The compound `O=C1CC(c2ccc(O)cc2)C2(O1)C(=O)OC(C(O)CO)C2O` (stereo not given) showed a TGI of over 100 µM.

As for `Cc1ccccc1[P+](Cc1ccccc1)(c1ccccc1)c1ccccc1`, the GI50 was 2.35 µM and the TGI is over 100 µM.

For `O=C(NCCCCCCNC(=O)n1cc(F)c(=O)[nH]c1=O)NCCCOCCOCCOCCOCCOCCOCCOCCOCCOCCOCCOCCOCCOCCOCCOCCOCCOCCOCCOCCOCCOCCCNC(=O)C(O)C(O)C(O)C(O)CO` (stereo not given), the TGI is over 100 µM.
